Data reported in patent publication US20210236840A1, “COMBINED SONODYNAMIC AND PHOTODYNAMIC THERAPY TO TREAT DEEP SEATED CANCER AND OTHER HYPERPOLIFERATIVE DISEASE AND ULTRASOUND AND LIGHT TRIGGERED RELEASE OF NEAR INFRARED PHOTOSENSITIZERS AND CHEMOTHERAPY AGENTS FROM POLYACRLAMIDE BASED NANOPARTICLES” (Photolitec, LLC, priority 2020, published 2021).

What was measured:
[1] = system: U87 tumors; experiment: Long-term tumor cure by Photobac-PDT; assay type: in vivo, SCID mice; details: laser light at 787 nm; for CR: 60 days
Procedure: Analysis of anticancer efficacy of Photobac was injected in tumor-bearing mice and treated with the laser light at 787 nm. Tumor cure was monitored for 60 days post-laser treatment. […] Photobac is being developed for the treatment of glioblastoma by Photolitec, LLC (a spin-off of RPCI) has received an ORPHAN DRUG STATUS from FDA.
Long-term tumor cure by Photobac-PDT on treating nude mice (female) bearing U87 tumors (shoulder) at variable drug doses. The tumors were exposed with light (787 nm, 135 J/cm^2, 75 mW/cm^2) at 24 h post injection. Comparative long-term cure of Photobac-PDT treatment in both and female SCID mice bearing U87 tumors (shoulder) under similar treatment parameters (drug dose: 0.75 μmol/kg; light dose: 135 J/cm^2, 75 mW/cm^2.

[2] = system: Colon 26 tumors and U87 tumors; experiment: Photobac-PDT vascular shutdown, CD31 staining of tumor sections; assay type: in vivo, BALB/C mice; nude mice; details: 787 nm, 135 J/cm2, 75 mW/cm2 at 24 h post-injection; 0.25 μmol/kg (Colon 26) or 0.75 μmol/kg (U87)
[3] = system: U87 Glioma xenografts; experiment: In vivo PDT and PDT-SDT combination response; details: PDT alone; SCID mice bearing U87 Glioma xenografts

Compound | mice tumor free up to 60 days ([1]; female SCID mice) | CR ([1]; female SCID mice) [%] | mice tumor free up to 60 days ([1]; male mice) | CR ([1]; male mice) [%] | vascular effect of PDT [2] | complete response [3] [%]
CCCCOC(C)C1=C(C)c2cc3nc(c4c5[nH]c(cc6[nH]c(cc1n2)[C@H](C)[C@H]6CC)c(C)c5C(=O)N(CCCC)C4=O)[C@@H](CCC(=O)OC)[C@@H]3C (stereo partly drawn) [Photobac, bacteriopurpurinimide] | 4/5 | 80 | 4/7 | 60 | causes vascular shutdown | –
CCCCCCOC(C)c1c(C)c2cc3nc(c4c5[nH]c(cc6nc(cc1[nH]2)C(C)=C6CC)c(C)c5C(=O)C4)[C@@H](CCC(=O)O)[C@@H]3C (stereo partly drawn) [HPPH, 2-(1-Hexyloxyethyl)-2-devinyl pyropheophorbide-a] | – | – | – | – | – | 37
